Test results as given in US7422846B2, “Natural ligand for orphan G protein coupled receptor GPR86 and methods of use” (Euroscreen S.A, priority 2001, dated 2008).
Read-outs that look alike come from different tables or passages of the source.

Key:
[1] = biological target: T1, GPR86 (P2Y13) human receptor (Homo sapiens, UniProt Q9BPV8, T179M); test: IP3 accumulation in 1321N1 cells (AG32) expressing GPR86 (P2Y13) together with Gα16; assay type: cell-based; parameters: expressed in transfected cells; host or cells: 1321N1 astrocytoma clone AG32 (stably expressing Gα16 from pERAEQ2), G418-selected; conditions: for effect on IP3 accumulation: 100 nM and 10 μM; for IP3 response to nucleotides: 100 μM for 30 s, pool of G418-resistant clones expressing GPR86 and Gα16; for IP3 responses after treatment of the nucleotide solutions with CPK and CP (ATP-regenerating system): 1 mM solutions, 20 units/ml CPK, 10 mM CP, 90 min, FIG. 4B; for agonist character at human P2Y13 receptor: after creatinephosphate and creatinephosphokinase treatment
T1 sequence (Q9BPV8 22-354 T179M): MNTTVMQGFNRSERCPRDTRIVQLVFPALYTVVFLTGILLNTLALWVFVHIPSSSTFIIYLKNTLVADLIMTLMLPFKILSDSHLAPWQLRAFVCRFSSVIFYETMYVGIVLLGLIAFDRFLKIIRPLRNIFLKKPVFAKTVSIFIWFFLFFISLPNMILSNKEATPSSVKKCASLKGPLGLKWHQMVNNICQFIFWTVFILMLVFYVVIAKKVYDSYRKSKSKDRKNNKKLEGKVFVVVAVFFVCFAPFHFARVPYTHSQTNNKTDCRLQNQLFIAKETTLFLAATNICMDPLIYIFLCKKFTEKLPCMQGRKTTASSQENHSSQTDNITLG
Protocol: Cells of the invention, for example, 1321N1 cells, are labelled for 24 hours with 10 μCi/ml [^3H] inositol in inositol free DMEM containing 5% FCS, antibiotics, amphotericin, sodium pyruvate and 400 μg/ml G418. Cells are incubated for 2 h in Krebs-Ringer Hepes (KRH) buffer of the following composition (124 mM NaCl, 5 mM KCl, 1.25 mM MgSO4, 1.45 mM CaCl2, 1.25 mM KH2PO4, 25 mM Hepes (pH: 7.4) and 8 mM glucose). The cells are then challenged with various nucleotides for 30 s. The incubation is stopped by the addition of an ice cold 3% perchloric acid solution. IP are extracted and separated on Dowex columns as previously described (25). 2MeSATP and ATP solutions (1 mM) are treated at room temperature with 20 units/ml CPK and 10 Mm cp for 90 min to circumvent problems arising from the contamination and degradation of triphosphate nucleotide solutions.
CHO-K1 and 1321N1 cells were transfected with the recombinant GPR86-pEFIN5 plasmid or with the plasmid alone using the FuGENE™6 transfection reagent (Roche Molecular Biochemicals). A clone called AG32 corresponding to 1321N1 cells previously transfected with pERAEQ2 plasmid encoding Gα16 (provided by Euroscreen), was transfected. The CHO-K1 and 1321N1 transfected cells were selected with 400 μg/ml G418 in complete medium (10% FBS, 100 units/ml penicillin, 100 μg/ml streptomycin and 2.5 μg/ml amphotericin B in respectively Ham's F12 or DMEM (Dulbecco's modified Eagle's) medium) two days after transfection and maintained in the same medium. The AG32 cells were maintained in the same DMEM complete medium supplemented with 500 μg/ml zeocin.
The pool of G418-resistant clones was tested for its functional IP3 response to several nucleotides, according to the method described above. The cells were challenged by various nucleotides at a concentration of 100 μM for 30 s: ATP, ADP, UTP, UDP, ITP, IDP, TDP.
Concentration-action curves for ADP, 2MeSADP and ADPβS. […] 1321N1 transfected cells were incubated in the presence of various concentrations of ADP, 2MeSADP and ADPβS for 30 s. The data represent the mean±S.D. of triplicate experimental points obtained in one representative experiment of three.
AG32 cells were seeded (200,000 cells per dish) on 35 mm (diameter) Petri dishes and labeled for 24 h with 5 μCi/ml [3H]-myoinositol in inositol free DMEM containing 5% fetal calf serum, antibiotics, amphotericin, sodium pyruvate, and 400 μg/ml of G418. Cells were incubated for 2 h in Krebs-Ringer Hepes (KRH) buffer (124 mM NaCl, 5 mM KCl, 1.25 mM MgSO4, 1.45 mM CaCl2, 1.25 mM KH2PO4, 25 mM Hepes (pH 7.4) and 8 mM D-glucose). The cells were then incubated in presence of ADP, ATP or 2MeSATP for 30 s. The incubation was stopped by the addition of 1 ml of an ice-cold 3% perchloric acid solution. Prior to the stimulation, ATP and 2MeSATP (1 mM solutions) were incubated for 90 min at room temperature with 20 units/ml creatine phosphokinase (CPK) and 10 mM creatine phosphate (CP). The reaction was stopped by addition of 10 mM iodoacetamide.
AG32 cells were seeded (200,000 cells per dish) on 35 mm (diameter) Petri dishes and labeled for 24 h with 5 μCi/ml [^3H]-myoinositol in inositol free DMEM containing 5% fetal calf serum, antibiotics, amphotericin, sodium pyruvate, and 400 μg/ml of G418. Cells were incubated for 2 h in Krebs-Ringer Hepes (KRH) buffer (124 mM NaCl, 5 mM KCl, 1.25 mM MgSO4, 1.45 mM CaCl2, 1.25 mM KH2PO4, 25 mM Hepes (pH 7.4) and 8 mM D-glucose). The cells were then incubated in presence of two different concentrations (100 nM and 10 μM) of ADP or ApnA (n=3-6) for 30 s. The incubation was stopped by the addition of 1 ml of an ice-cold 3% perchloric acid solution.
AG32 cells were seeded (200,000 cells per dish) on 35 mm (diameter) Petri dishes and labeled for 24 h with 5 μCi/ml [^3H]-myoinositol in inositol free DMEM containing 5% fetal calf serum, antibiotics, amphotericin, sodium pyruvate, and 400 μg/ml of G418.

[2] = biological target: T1, GPR86 (P2Y13) human receptor; test: Western blot of phosphorylated Erk1 and Erk2 in GPR86-transfected CHO-K1 cells; assay type: cell-based; parameters: expressed in transfected cells; conditions: pertussis toxin 100 ng/ml for 18 h; agonist 1 μM, 5 or 30 minutes
Protocol: To investigate changes in the activation status of the MAP kinases Erk1 and Erk2 upon stimulation of the human GPR86 receptor, whole CHO-K1 transfected cell extracts were analysed by Western blotting using a specific antibody for the dually phosphorylated kinases (at Thr^202 and Tyr^204), which are the active forms of Erk. Western Blot Analysis of phosphorylated Erk1 and Erk2 proteins.
GPR86-transfected CHO-K1 cells were seeded at 1.5×10^6 cells/dish. After 24 h, the cells were serum-starved for 2 h in KRH buffer. After stimulation with the agonist, the cells were scraped in 1 ml of PBS pH 7.3 (137 mM NaCl, 2.7 mM KCl, 4.3 mM Na2HPO4.7H2O and 1.4 mM KH2PO4). The cells were recovered by centrifugation and lysed in 150 μl of Laemmli buffer (10% (w/v) glycerol, 5% (v/v) mercaptoethanol, 2.3% (w/v) SDS, 62.5 mM Tris-HCl pH 6.8). The protein concentration was determined using the method of Minamide and Bamburg (27). The same amount of protein for each condition was electrophoresed in a 12% SDS-polyacrylamide gel. Proteins were then transferred overnight at 60 V and 4° C. onto a nitrocellulose membrane using 20 mM Tris, 154 mM glycine, 20% (v/v) methanol as a transfer buffer. Immunodetection was achieved using the enhanced chemiluminescence Western blotting detection system (ECL, Amersham Phammacia Biotech) using a biotinylated-secondary mouse antibody ( 1/25,000). The monoclonal antibody specific for the dually phosphorylated forms of Erk1 and Erk2 (at Thr^202 and Tyr^204) was used at 1/1000-dilution.
In CHO-K1 cells, phosphorylated Erk1 and Erk2 had the predicted molecular mass of 44 and 42 kDa, respectively. […] GPR86-transfected CHO-K1 cells were stimulated during different times or with various concentrations of ADP and 2MeSADP or water (CONT). The effect of 100 ng/ml pertussis toxin (PTx) has been tested at 5 and 30 min in the presence of 1 μM ADP or 2MeSADP. Blotting and immunodetection were achieved as described using the enhanced chemiluminescence Western blotting detection system (ECL, Amersham Pharmacia Biotech).

[3] = 1321N1 cells expressing GPR86 and Gα16
[4] = AG32 cells, nucleotides pretreated with creatine phosphokinase and creatine phosphate, 30 s, read-out: EC50, stimulation of GPR86 receptor activity ([3H]IP3)

Molecule: Nc1ncnc2c1ncn2[C@@H]1O[C@H](COP(=O)(O)O)[C@@H](OP(=O)(O)O)[C@H]1O [A3P5P, adenosine 3′,5′-diphosphate]
- IP3 response [1, 3]: No IP3 response

Molecule: Nc1ncnc2c1ncn2[C@@H]1O[C@H](COP(=O)(O)OP(=O)(O)OP(=O)(O)OC[C@H]2O[C@@H](n3cnc4c(N)ncnc43)[C@H](O)[C@@H]2O)[C@@H](O)[C@H]1O [Ap3A]
- effect on IP3 accumulation ([1]; AG32 cells, 30 s): almost equal to that of ADP

Molecule: O=c1[nH]cnc2c1ncn2[C@@H]1O[C@H](COP(=O)(O)OP(=O)(O)O)[C@@H](O)[C@H]1O [IDP]
- IP3 response to nucleotides [1]: induced an IP3 response

Molecule: Nc1ncnc2c1ncn2[C@@H]1O[C@H](COP(=O)(O)OP(=O)(O)OP(=O)(O)OP(=O)(O)OP(=O)(O)OP(=O)(O)OC[C@H]2O[C@@H](n3cnc4c(N)ncnc43)[C@H](O)[C@@H]2O)[C@@H](O)[C@H]1O [Ap6A]
- effect on IP3 accumulation ([1]; AG32 cells, 30 s): inactive

Molecule: Nc1ncnc2c1ncn2[C@@H]1O[C@H](COP(=O)(O)O)[C@@H](O)[C@H]1OP(=O)(O)O [A2P5P, adenosine 2′,5′-diphosphate]
- IP3 response [1, 3]: No IP3 response

Molecule: CSc1nc(N)c2ncn([C@@H]3O[C@H](COP(=O)(O)OP(=O)(O)OP(=O)(O)O)[C@@H](O)[C@H]3O)c2n1 [2MeSATP, 2-methylthio-ATP]
- IP3 response to nucleotides [1]: responses were lost after HPLC-purification
- IP3 responses after treatment of the nucleotide solutions with CPK and CP (ATP-regenerating system) [1]: abolished
- agonist character at human P2Y13 receptor ([1]; AG32 cells): partial agonists
- EC50 [1, 4]: 1500 ± 200 nM

Molecule: O=c1[nH]cnc2c1ncn2[C@@H]1O[C@H](COP(=O)(O)OP(=O)(O)OP(=O)(O)O)[C@@H](O)[C@H]1O [ITP]
- IP3 response to nucleotides [1]: No IP3 response

Molecule: pertussis toxin
- effect on Erk phosphorylation induced by ADP or 2-MeSADP [2]: strongly inhibited
- inhibition of the ADP response (IP3) ([1]; ADP 300 nM, 18 hours pretreatment with 100 ng/ml pertussis toxin, mean±range of two independent experiments): 86±8%

Molecule: Nc1ncnc2c1ncn2[C@@H]1O[C@H](COP(=O)(O)OS(=O)(=O)O)[C@@H](OP(=O)(O)O)[C@H]1O [A3P5PS, adenosine 3′-phosphate 5′-phosphosulfate]
- IP3 response [1, 3]: No IP3 response

Molecule: O=c1ccn([C@@H]2O[C@H](COP(=O)(O)OP(=O)(O)OP(=O)(O)O)[C@@H](O)[C@H]2O)c(=O)[nH]1 [UTP]
- IP3 response to nucleotides [1]: No IP3 response

Molecule: Nc1ncnc2c1ncn2[C@@H]1O[C@H](COP(=O)(O)OP(=O)(O)OP(=O)(O)O)[C@@H](O)[C@H]1O [ATP]
- IP3 response to nucleotides [1]: responses were lost after HPLC-purification
- IP3 responses after treatment of the nucleotide solutions with CPK and CP (ATP-regenerating system) [1]: abolished
- agonist character at human P2Y13 receptor ([1]; AG32 cells): partial agonists
- EC50 [1, 4]: 4200 ± 800 nM

Molecule: Poly[A]
- activity on human GPR86 after creatinephosphate/creatinephosphokinase treatment ([1]; AG32 cells, 30 s, FIG. 10): still able to activate GPR86
- EC50 ([1]; AG32 cells, after creatinephosphate/creatinephosphokinase treatment, concentration in AMP equivalent, read-out: EC50, activation of GPR86 ([3H]IP3)): 205000 ± 60000 nM

Molecule: Nc1ncnc2c1ncn2[C@@H]1O[C@H](COP(=O)(O)OP(=O)(O)OP(=O)(O)OP(=O)(O)OP(=O)(O)OC[C@H]2O[C@@H](n3cnc4c(N)ncnc43)[C@H](O)[C@@H]2O)[C@@H](O)[C@H]1O [Ap5A]
- effect on IP3 accumulation ([1]; AG32 cells, 30 s): inactive

Molecule: adenosine 5′-O-(2-thiodiphosphate) [ADPβS]
- EC50 ([1]; 1321N1 cells expressing GPR86 and Gα16, 30 s, mean±S.D. of three independent experiments, read-out: EC50, IP3 accumulation): 48.4 ± 0.4 nM

Molecule: Nc1ncnc2c1ncn2[C@@H]1O[C@H](COP(=O)(O)OP(=O)(O)OP(=O)(O)OP(=O)(O)OC[C@H]2O[C@@H](n3cnc4c(N)ncnc43)[C@H](O)[C@@H]2O)[C@@H](O)[C@H]1O [Ap4A]
- effect on IP3 accumulation ([1]; AG32 cells, 30 s): inactive

Molecule: O=c1ccn([C@@H]2O[C@H](COP(=O)(O)OP(=O)(O)O)[C@@H](O)[C@H]2O)c(=O)[nH]1 [UDP]
- IP3 response to nucleotides [1]: induced an IP3 response

Molecule: Cc1cn([C@H]2C[C@H](O)[C@@H](COP(=O)(O)OP(=O)(O)O)O2)c(=O)[nH]c1=O [TDP]
- IP3 response to nucleotides [1]: No IP3 response
